Laboratory results published in the CheMixHub viscosity set.

Experiment: xn = mol fraction of the nth substance listed

CCOC(=O)c1ccccc1 + CCCCCCCCCC
101 kPa
Conditions | viscosity [mPa·s]
298.15 K, x2 = 0.0396 | 1.837
298.15 K, x2 = 0.1121 | 1.655
298.15 K, x2 = 0.151 | 1.566
298.15 K, x2 = 0.2285 | 1.42
298.15 K, x2 = 0.2637 | 1.355
298.15 K, x2 = 0.3109 | 1.289
298.15 K, x2 = 0.4026 | 1.176
298.15 K, x2 = 0.4449 | 1.136
298.15 K, x2 = 0.4949 | 1.088
298.15 K, x2 = 0.5326 | 1.056
298.15 K, x2 = 0.5928 | 1.011
298.15 K, x2 = 0.6401 | 0.982
298.15 K, x2 = 0.6988 | 0.947
298.15 K, x2 = 0.812 | 0.894
298.15 K, x2 = 0.8703 | 0.875
298.15 K, x2 = 0.9276 | 0.86
308.15 K, x2 = 0.0574 | 1.521
308.15 K, x2 = 0.0864 | 1.466
308.15 K, x2 = 0.1337 | 1.383
308.15 K, x2 = 0.1677 | 1.329
308.15 K, x2 = 0.1997 | 1.279
308.15 K, x2 = 0.2471 | 1.215
308.15 K, x2 = 0.2846 | 1.165
308.15 K, x2 = 0.3332 | 1.109
308.15 K, x2 = 0.3766 | 1.065
308.15 K, x2 = 0.4181 | 1.024
308.15 K, x2 = 0.4647 | 0.985
308.15 K, x2 = 0.5144 | 0.947
308.15 K, x2 = 0.5655 | 0.913
308.15 K, x2 = 0.6123 | 0.885
308.15 K, x2 = 0.6663 | 0.854
308.15 K, x2 = 0.7228 | 0.828
308.15 K, x2 = 0.7857 | 0.803
308.15 K, x2 = 0.8405 | 0.784
308.15 K, x2 = 0.9073 | 0.764
318.15 K, x2 = 0.0323 | 1.298
318.15 K, x2 = 0.07 | 1.235
318.15 K, x2 = 0.1012 | 1.188
318.15 K, x2 = 0.1446 | 1.128
318.15 K, x2 = 0.1842 | 1.078
318.15 K, x2 = 0.2269 | 1.027
318.15 K, x2 = 0.2679 | 0.984
318.15 K, x2 = 0.3143 | 0.939
318.15 K, x2 = 0.3561 | 0.903
318.15 K, x2 = 0.4045 | 0.866
318.15 K, x2 = 0.4499 | 0.835
318.15 K, x2 = 0.5021 | 0.803
318.15 K, x2 = 0.5496 | 0.777
318.15 K, x2 = 0.6035 | 0.752
318.15 K, x2 = 0.6545 | 0.73
318.15 K, x2 = 0.7126 | 0.708
318.15 K, x2 = 0.7674 | 0.69
318.15 K, x2 = 0.8289 | 0.674
318.15 K, x2 = 0.8862 | 0.661

CCOC(=O)[C@@H](O)[C@H](O)C(=O)OCC + CCCCO
viscosity [mPa·s], 101 kPa
Conditions | x1 = 0.0999 | x1 = 0.1999 | x1 = 0.3 | x1 = 0.4001 | x1 = 0.4999 | x1 = 0.5999 | x1 = 0.7001 | x1 = 0.8001 | x1 = 0.8999
293.15 K | 3.887 | 5.56 | 8.24 | 12.44 | 18.99 | 29.36 | 42.81 | 68.14 | 118.3
298.15 K | 3.353 | 4.704 | 6.807 | 9.946 | 14.79 | 22.09 | 31.37 | 47.6 | 78.41
303.15 K | 2.902 | 3.987 | 5.63 | 8.08 | 11.64 | 16.9 | 23.32 | 34.35 | 54.15
308.15 K | 2.527 | 3.408 | 4.729 | 6.627 | 9.328 | 13.22 | 17.74 | 25.53 | 38.75
313.15 K | 2.217 | 2.928 | 3.975 | 5.454 | 7.552 | 10.48 | 13.83 | 19.41 | 28.56
318.15 K | 1.953 | 2.557 | 3.433 | 4.631 | 6.283 | 8.549 | 11.11 | 15.2 | 21.73
323.15 K | 1.746 | 2.26 | 2.993 | 3.98 | 5.303 | 7.092 | 9.107 | 12.19 | 16.99

C1=CCCCC1 + C1COCCO1
303.15 K, 101 kPa
Conditions | viscosity [mPa·s]
x1 = 0.1067 | 0.932
x1 = 0.2617 | 0.833
x1 = 0.3551 | 0.789
x1 = 0.4267 | 0.754
x1 = 0.4787 | 0.734
x1 = 0.5637 | 0.702
x1 = 0.6603 | 0.668
x1 = 0.7706 | 0.634
x1 = 0.8678 | 0.606

CCCNCCC + CCCCCCCCO
viscosity [mPa·s], 101.33 kPa
Conditions | x1 = 0.0971 | x1 = 0.1988 | x1 = 0.2871 | x1 = 0.3825 | x1 = 0.4806 | x1 = 0.5852 | x1 = 0.6925 | x1 = 0.7882 | x1 = 0.8977
303.15 K | 5.165 | 4.21 | 3.462 | 2.752 | 2.135 | 1.61 | 1.202 | 0.9319 | 0.6909
313.15 K | 3.773 | 3.107 | 2.571 | 2.053 | 1.6 | 1.223 | 0.9264 | 0.7294 | 0.5547

CCOC(=O)c1ccccc1 + CCCCCCCCCCCCCC
101 kPa
Conditions | viscosity [mPa·s]
298.15 K, x2 = 0.0376 | 1.927
298.15 K, x2 = 0.0653 | 1.899
298.15 K, x2 = 0.097 | 1.866
298.15 K, x2 = 0.1285 | 1.84
298.15 K, x2 = 0.1619 | 1.815
298.15 K, x2 = 0.1952 | 1.799
298.15 K, x2 = 0.229 | 1.781
298.15 K, x2 = 0.269 | 1.767
298.15 K, x2 = 0.3084 | 1.754
298.15 K, x2 = 0.3521 | 1.745
298.15 K, x2 = 0.3928 | 1.742
298.15 K, x2 = 0.4877 | 1.744
298.15 K, x2 = 0.5485 | 1.755
298.15 K, x2 = 0.5924 | 1.767
298.15 K, x2 = 0.6572 | 1.791
298.15 K, x2 = 0.7238 | 1.827
298.15 K, x2 = 0.7795 | 1.867
298.15 K, x2 = 0.8695 | 1.935
308.15 K, x2 = 0.0358 | 1.606
308.15 K, x2 = 0.0727 | 1.582
308.15 K, x2 = 0.1009 | 1.566
308.15 K, x2 = 0.1305 | 1.552
308.15 K, x2 = 0.1614 | 1.537
308.15 K, x2 = 0.198 | 1.524
308.15 K, x2 = 0.2316 | 1.515
308.15 K, x2 = 0.2666 | 1.506
308.15 K, x2 = 0.3094 | 1.498
308.15 K, x2 = 0.3501 | 1.493
308.15 K, x2 = 0.3905 | 1.49
308.15 K, x2 = 0.4393 | 1.489
308.15 K, x2 = 0.4794 | 1.491
308.15 K, x2 = 0.5373 | 1.498
308.15 K, x2 = 0.5983 | 1.51
308.15 K, x2 = 0.6573 | 1.527
308.15 K, x2 = 0.7193 | 1.552
308.15 K, x2 = 0.8442 | 1.615
308.15 K, x2 = 0.9249 | 1.663
318.15 K, x2 = 0.0231 | 1.332
318.15 K, x2 = 0.0543 | 1.31
318.15 K, x2 = 0.0817 | 1.291
318.15 K, x2 = 0.1144 | 1.274
318.15 K, x2 = 0.1449 | 1.259
318.15 K, x2 = 0.1819 | 1.245
318.15 K, x2 = 0.2156 | 1.233
318.15 K, x2 = 0.2563 | 1.225
318.15 K, x2 = 0.2936 | 1.219
318.15 K, x2 = 0.3396 | 1.213
318.15 K, x2 = 0.3807 | 1.212
318.15 K, x2 = 0.4322 | 1.213
318.15 K, x2 = 0.4784 | 1.216
318.15 K, x2 = 0.5446 | 1.226
318.15 K, x2 = 0.5958 | 1.237
318.15 K, x2 = 0.6468 | 1.251
318.15 K, x2 = 0.6941 | 1.267
318.15 K, x2 = 0.7925 | 1.306
318.15 K, x2 = 0.8579 | 1.336
